Test results taken from patent US9302993B2, “8-hydroxy quinoline derivatives” (PRANA BIOTECHNOLOGY LIMITED, priority 2002, dated 2016).
Converted amounts (≈) assume the structure as drawn. Like-named read-outs stand apart in the source and are kept apart here.

Experiments:
Neuronal cortical cells = assay: Assay for test compound cytoxicity, MTS (Assay 3(d)); type: cell-based, mouse; details: BL6J×129sv, mouse, 4 days
[1] = system: Neuronal cortical cells treated with Aβ1-42; assay: Assay for Aβ neurotoxicity and Aβ neuroprotection (Assay 3(c)); type: cell-based, mouse; details: 20 uM Aβ1-42, 4 days, MTS
APP2576 transgenic mouse [2] = assay: Effect of administration of test compounds on Aβ deposits in transgenic animals (Assay 11); type: in vivo; parameters: concentration or dose not given beside the values; details: transgenic mouse brains; for Insoluble fraction. % change compared with control.: insoluble Aβ; for Soluble fraction. % change compared with control.: soluble Aβ
[3] = Turbidimetric solubility measurements (Assay 13); type: physicochemical; details: kinetic from dmso stock, 1% DMSO, nephelometry
Method: Turbidimetric Solubility Measurements
The solubility estimate was measured at both pH 2.0 and pH 6.5. This is within the pH range that can be anticipated along the proximal gastrointestinal tract in humans.
The compounds were dissolved in DMSO to appropriate concentrations and then spiked into either 0.01M HCl (approx. pH=2.0) or pH 6.5 isotonic phosphate buffer, the final DMSO concentration being 1%. Samples were then analysed via Nephelometry to determine a solubility range. [as per D. Bevan and R. S. Lloyd, Anal. Chem. 2000, 72, 1781-1787].

APP2576 transgenic mouse [4] = assay: Transgenic mouse brain immunohistochemistry, plaque abundance (Assay 15); type: in vivo; details: for % difference from control (sham treated animal): plaque score; for Mean plaque score: scale 0 to 4
Description: Assay 15. Transgenic Mouse Brain Immunohistochemistry
The APP2576 transgenic mouse (Hsiao et al., 1996) as referred to in Assay 11 were utilized in this assay. The contralateral formalin-fixed mouse brain tissue was coronally cut. Sections (10 μm) were taken from the corresponding sites and treated with 80% formic acid for antigen retrieval. The primary antibody used was monoclonal antibody 1E8, which recognizes epitopes between residues 18 and 22 of Aβ (SmithKline Beecham, UK). Immunoreactivity was developed with secondary antibody linked to horseradish peroxidase (using a 3,39-diaminobenzidinechromagen) (Dako) and alkaline phosphatase (using 5-bromo-4-chloro 3-indoxyl phosphate and nitroblue tetrazolium chloride chromagen) (Dako). Plaque abundance per section was assessed by two operators blinded to treatment according to the following scale:
1=plaques present but very sparse
2=several plaques present
3=numerous plaques visible in restricted areas
4=plaques abundant and not restricted to any particular area.
Intermediate values eg 2.5 were assigned where applicable.
Students' t ‘test was used for comparisons between groups.

[5] = aqueous buffer, pH 6.5 isotonic phosphate buffer, read-out: Solubility pH 6.5
[6] = simulated gastric fluid, 0.01M HCl (approx. pH 2.0), read-out: Solubility (μg/mL) 0.01M HCl

Question: Which results are given for `CN(C)Cc1ccc2c(Cl)cc(Cl)c(O)c2n1.Cl` [compound 1033, 5,7-Dichloro-2-dimethylaminomethyl-quinolin-8-ol hydrochloride]?
Answer: Test Compound Cytoxicity 1 uM (Neuronal cortical cells): 80; Test Compound Cytoxicity 10 uM (Neuronal cortical cells): 70; % inhibition Abeta toxicity [1]: 38%; Insoluble fraction. % change compared with control. (APP2576 transgenic mouse [2]): −29%; Soluble fraction. % change compared with control. (APP2576 transgenic mouse [2]): −37%; solubility [3, 5]: 3.1 to 6.2 µg/mL; solubility [3, 6]: < 3.1 µg/mL; % difference from control (sham treated animal) (APP2576 transgenic mouse [4]): −41%; Mean plaque score (APP2576 transgenic mouse [4]): 2.06

Question: With `O=C(NCCc1c[nH]cn1)c1ccc2c(Cl)cc(Cl)c(O)c2n1` [compound 1038, 5,7-Dichloro-8-hydroxyquinoline-2-carboxylic acid [2-(1H-imidazol-4-yl)-ethyl]-amide] as the compound, how does the “Test Compound Cytoxicity 1 uM” value (Neuronal cortical cells) read?
Answer: 93

Question: What about the “Test Compound Cytoxicity 10 uM” value (Neuronal cortical cells) of the same compound?
Answer: 83

Question: What about the “% inhibition Abeta toxicity” value [1] of the same compound?
Answer: 19%

Question: What about the “Insoluble fraction. % change compared with control.” value (APP2576 transgenic mouse [2]) of the same compound?
Answer: −37%

Question: And the “Soluble fraction. % change compared with control.” value (APP2576 transgenic mouse [2])?
Answer: negligible

Question: What about the solubility [3, 5] of the same compound?
Answer: 12.5 to 25 µg/mL (≈ 35.6 to 71.2 µM)

Question: What about the solubility [3, 6] of the same compound?
Answer: 3.1 to 6.2 µg/mL (≈ 8.83 to 17.7 µM)

Question: And the “% difference from control (sham treated animal)” value (APP2576 transgenic mouse [4])?
Answer: −17%

Question: What about the Mean plaque score (APP2576 transgenic mouse [4]) of the same compound?
Answer: 3.0

Question: With `Cn1cnc(CCNC(=O)c2ccc3c(Cl)cc(Cl)c(O)c3n2)c1` [compound 1050, 5,7-dichloro-8-hydroxyquinoline-2-carboxylic acid [2-(1-methyl-1H-imidazol-4-yl)-ethyl]-amide] as the compound, how does the “Test Compound Cytoxicity 1 uM” value (Neuronal cortical cells) read?
Answer: 93

Question: What about the “Test Compound Cytoxicity 10 uM” value (Neuronal cortical cells) of the same compound?
Answer: 88

Question: And the “% inhibition Abeta toxicity” value [1]?
Answer: 6%

Question: And the solubility [3, 5]?
Answer: 12.5 to 25 µg/mL (≈ 34.2 to 68.5 µM)

Question: And the solubility [3, 6]?
Answer: 25 to 50 µg/mL (≈ 68.5 to 137 µM)

Question: Which results are given for `CCNCc1ccc2c(Cl)cc(Cl)c(O)c2n1.Cl` [compound 1051, 5,7-dichloro-2-ethylaminomethyl-quinolin-8-ol hydrochloride]?
Answer: Test Compound Cytoxicity 1 uM (Neuronal cortical cells): 87; Test Compound Cytoxicity 10 uM (Neuronal cortical cells): 56; % inhibition Abeta toxicity [1]: 23%; Insoluble fraction. % change compared with control. (APP2576 transgenic mouse [2]): −21%; Soluble fraction. % change compared with control. (APP2576 transgenic mouse [2]): negligible; solubility [3, 5]: < 3.1 µg/mL; solubility [3, 6]: < 3.1 µg/mL; % difference from control (sham treated animal) (APP2576 transgenic mouse [4]): −39%; Mean plaque score (APP2576 transgenic mouse [4]): 2.13
